Source: the Deep4Chem optical property database
Values joined by “and” are separate entries in the source; they are usually repeats but may differ in a detail not shown here. Identical values can stand only once. Each block holds one compound with its values, some of them ahead of it.

Assay: solvent given as SMILES
[1] = in O=P(c1ccccc1)(c1ccccc1)c1ccccc1Oc1ccccc1P(=O)(c1ccccc1)c1ccccc1

Structure (SMILES): CCN(CC)c1ccc(-c2nc3c(nc2-c2ccc(B(c4c(C)cc(C)cc4C)c4c(C)cc(C)cc4C)cc2)c2ccccc2n3C)cc1
- emission maximum (in C1CCCCC1): 462 nm
- emission maximum (in C1CCOC1): 528 nm
- emission maximum (in CC(C)=O): 544 nm
- emission maximum (in CS(C)=O): 567 nm
- emission maximum (in Cc1ccccc1): 493 nm

Structure (SMILES): Cn1c2ccc(S(=O)(=O)O)cc2c(=O)c2cc(S(=O)(=O)O)ccc21
- emission maximum (in CS(C)=O): 424 nm
- emission maximum (in O): 433 nm

Structure (SMILES): Cc1nc2c(c[n+]1C)CN1C(=O)N([C@H]3O[C@@H](CO)[C@H](O)[C@@H]3O)C=CC1=N2
- emission maximum (in CC#N): 416 nm
- emission maximum (in CC(C)=O): 418 nm
- emission maximum (in CCCCO): 417 nm
- emission maximum (in CCCO): 417 nm
- emission maximum (in CCO): 417 nm
- emission maximum (in CO): 417 nm
- emission maximum (in O): 414 nm
- emission maximum (in [2H]OC): 417 nm
- emission maximum (in [2H]OCC): 417 nm
- emission maximum (in [2H]O[2H]): 414 nm

Structure (SMILES): CC1=[N+]2C(=C(c3ccc(C=O)cc3)c3ccc(C)n3[B-]2(F)F)C=C1c1cc2n(c1)[B-](F)(F)[N+]1=CC=CC1=C2c1c(C)cc(C)cc1C
- emission maximum (in C1CCCCC1): 657 nm
- emission maximum (in CCOC(C)=O): 669 nm

Structure (SMILES): CCCCCCCCC1(CCCCCCCC)c2cc(-c3ccc(C=C4C(=O)c5ccccc5C4=O)cc3)ccc2-c2ccc(-c3ccc(C=C4C(=O)c5ccccc5C4=O)cc3)cc21
- emission maximum (in C1CCOC1): 531 nm
- emission maximum (in CC(C)=O): 568 nm
- emission maximum (in CCCCCC): 462 nm
- emission maximum (in CS(C)=O): 596 nm
- emission maximum (in Cc1ccccc1): 486 nm
- emission maximum (in ClC(Cl)Cl): 530 nm

Structure (SMILES): N#Cc1c(-n2c3ccccc3c3ccccc32)c(-n2c3ccccc3c3ccccc32)c(-n2c3ccccc3c3ccccc32)c(-n2c3ccccc3c3ccccc32)c1-n1c2ccccc2c2ccccc21
- emission maximum (in CCCCCC): 451.82 nm
- emission maximum (in CCO): 515.31 nm
- emission maximum (in Cc1ccccc1): 464 nm and 470 nm
- emission maximum (in ClCCl): 497.22 nm
- emission maximum (in c1cc(-c2cccc(-n3c4ccccc4c4ccccc43)c2)cc(-n2c3ccccc3c3ccccc32)c1): 486 nm

Structure (SMILES): COc1ccc(N(c2ccc(OC)cc2)c2cc(N(c3ccc(OC)cc3)c3ccc(OC)cc3)c3ccc4cc(C(C)(C)C)cc5ccc2c3c54)cc1
- emission maximum (in ClCCl): 525 nm

Structure (SMILES): COc1ccc(C(=O)COc2c(C)c(=O)n3c(=O)c(C)c(COC(=O)c4ccccc4Cl)n23)cc1
- emission maximum (in CCO): 460 nm

Structure (SMILES): c1ccc(-c2nc(-c3ccccc3)nc(-c3ccc(-n4c5ccccc5c5cc(-c6ccc7c(c6)c6ccccc6n7-c6ccccc6)ccc54)cc3)n2)cc1
- emission maximum [1]: 458.07 nm

Structure (SMILES): COc1cccc(OC)c1-c1c2ccc(=[N+]3CCN(C(=O)OC(C)(C)C)CC3)cc-2oc2cc(N3CCN(C(=O)OC(C)(C)C)CC3)ccc12
- emission maximum (in ClCCl): 580 nm

Structure (SMILES): CCOC(=O)C(Cc1ccc(O[Si]2(Oc3ccc(CC(NC(C)=O)C(=O)OCC)cc3)n3c4c5ccccc5c3/N=C3N=C(/N=c5/c6ccccc6/c(n52)=N/C2=NC(=N\4)/c4ccccc42)c2ccccc2\3)cc1)NC(C)=O (configuration not stated)
- emission maximum (in CN(C)C=O): 686 nm

Structure (SMILES): CC/[NH+]=c1\cc2oc3cc(NCCC(=O)O)c4ccccc4c3nc-2cc1C
- emission maximum (in CCO): 644 nm
- emission maximum (in O): 652 nm

Structure (SMILES): CN(C)c1ccc(-c2c(/C=C3/C=Cc4ccccc4N3Cc3ccccc3)c(=O)c2=O)cc1
- emission maximum (in C1CCCCC1): 427 nm
- emission maximum (in Cc1ccccc1): 435 nm
- emission maximum (in ClCCl): 586 nm

Structure (SMILES): Cc1ccc2ccccc2c1
- emission maximum (in C1CCCCC1): 338.75 nm

Structure (SMILES): CCCCCCCCC1(CCCCCCCC)c2cc(C#CC#Cc3ccc(N(c4ccccc4)c4ccccc4)cc3)ccc2-c2ccc(C=O)cc21
- emission maximum (in C1CCOC1): 498 nm
- emission maximum (in C1COCCO1): 448 nm
- emission maximum (in CC#N): 525 nm
- emission maximum (in CC(C)=O): 541 nm
- emission maximum (in CCCCCC): 422 nm
- emission maximum (in CCOC(C)=O): 500 nm
- emission maximum (in CN(C)C=O): 523 nm
- emission maximum (in CS(C)=O): 540 nm
- emission maximum (in Cc1ccccc1): 442 nm
- emission maximum (in ClC(Cl)Cl): 500 nm
- emission maximum (in ClCCl): 520 nm

Structure (SMILES): F[B-]1(F)n2cccc2C(c2ccccc2)=C2C=CC=[N+]21
- emission maximum (in Cc1ccccc1): 521 nm
- emission maximum (in ClCCl): 522 nm

Structure (SMILES): CNc1cc2nc3cc(F)c(F)cc3nc2cc1NC
- emission maximum (in CCO): 529 nm

Structure (SMILES): CC1(C)C(/C=C/C2=C(Oc3ccc(CCN=C=S)cc3F)C(=C/C=C3/N(CCCS(=O)(=O)[O-])c4ccccc4C3(C)C)/CCC2)=[N+](CCCS(=O)(=O)[O-])c2ccccc21
- emission maximum (in CO): 797 nm

Structure (SMILES): C[Si](C)(C)C#Cc1cccc2ccccc12
- emission maximum (in C1CCCCC1): 336 nm

Structure (SMILES): CC1(C)c2ccccc2N(c2ccc3c(c2)Oc2ccccc2P3(=O)c2ccccc2)c2ccccc21 (configuration not stated)
- emission maximum (in Cc1ccccc1): 433 nm
- emission maximum [1]: 434 nm

Structure (SMILES): CN(C)CCCN1c2ccccc2CCc2ccccc21
- emission maximum (in CC#N): 348 nm
- emission maximum (in CO): 353 nm
- emission maximum (in O): 400 nm

Structure (SMILES): COC(=O)C(Cc1ccc2oc(-c3ccc(N(C)C)cc3)nc2c1)NC(=O)OC(C)(C)C (configuration not stated)
- emission maximum (in C1CCCCC1): 377 nm
- emission maximum (in C1CCOC1): 391.5 nm
- emission maximum (in C1COCCO1): 377 nm
- emission maximum (in CC1CCCO1): 384.5 nm
- emission maximum (in CC1COC(=O)O1): 404.01 nm
- emission maximum (in CC#N): 395.51 nm
- emission maximum (in CC(C)=O): 394.49 nm
- emission maximum (in CC(C)CC(C)(C)C): 375 nm
- emission maximum (in CC(C)CO): 396.49 nm
- emission maximum (in CC(C)O): 397 nm
- emission maximum (in CC(C)OC(C)C): 387.51 nm
- emission maximum (in CC(O)CO): 408.5 nm
- emission maximum (in CCC(C)CC): 374.5 nm
- emission maximum (in CCCCC): 374 nm
- emission maximum (in CCCCCC): 375 nm
- emission maximum (in CCCCCCCCC): 376 nm
- emission maximum (in CCCCCCCCCC): 377 nm
- emission maximum (in CCCCCCCO): 396.49 nm
- emission maximum (in CCCCCCO): 397.99 nm
- emission maximum (in CCCCCO): 388.5 nm
- emission maximum (in CCCCO): 399.5 nm
- emission maximum (in CCO): 403 nm
- emission maximum (in CCOC(C)=O): 381.5 nm
- emission maximum (in CCOCC): 379.51 nm
- emission maximum (in CN(C)C=O): 400.5 nm
- emission maximum (in CO): 403.5 nm
- emission maximum (in COCCOC): 395.51 nm
- emission maximum (in CS(C)=O): 408.5 nm
- emission maximum (in Cc1ccccc1): 374.5 nm
- emission maximum (in Cc1ccccc1C): 373 nm
- emission maximum (in ClC(Cl)Cl): 382 nm
- emission maximum (in ClCCl): 388 nm
- emission maximum (in NC=O): 411.51 nm
- emission maximum (in OC1CCCCC1): 398.99 nm
- emission maximum (in OCCO): 408.5 nm
- emission maximum (in c1ccccc1): 375.5 nm

Structure (SMILES): CCC1(CC)c2ccccc2-c2ccc(C#Cc3cc(C#Cc4ccc5c(c4)C(CC)(CC)c4ccccc4-5)c4ccc5c(C#Cc6ccc7c(c6)C(CC)(CC)c6ccccc6-7)cc(C#Cc6ccc7c(c6)C(CC)(CC)c6ccccc6-7)c6ccc3c4c65)cc21
- emission maximum (in Cc1ccccc1): 549 nm

Structure (SMILES): CCCSc1ccc2n1[B-](F)(F)[N+]1=C(SC#N)C=CC1=C2c1ccccc1
- emission maximum (in CC#N): 567 nm
- emission maximum (in CCCCCC): 568 nm
- emission maximum (in CCOC(C)=O): 567 nm
- emission maximum (in CO): 563 nm
- emission maximum (in ClCCl): 569 nm

Structure (SMILES): CC(C)c1cc(C(C)C)c(B2c3ccccc3Oc3cc(N4c5ccccc5C5(c6ccccc6-c6ccccc65)c5ccccc54)ccc32)c(C(C)C)c1
- emission maximum (in Cc1ccccc1): 456 nm

Structure (SMILES): CC[B-]1(CC)c2cccc3c4c5c(cccc5c(c23)-c2cccc(C)[n+]21)[B-](CC)(CC)[n+]1c(C)cccc1-4
- emission maximum (in ClCCl): 620 nm

Structure (SMILES): Clc1ccc(-c2nc3sc4ccccc4c3s2)cc1
- emission maximum (in CS(C)=O): 418 nm

Structure (SMILES): Nc1cccc2cc3ccccc3cc12
- emission maximum (in C1CCCCC1): 487.09 nm

Second part, the compound after the results:

- emission maximum (in C1CCOC1): 601 nm
Structure (SMILES): c1cc2c3c4c5c(cccc5cc3c1)-c1cccn1B4n1cccc1-2

- emission maximum (in ClC(Cl)Cl): 474 nm
Structure (SMILES): Clc1ccc(-c2nc(-c3ccccc3)c(N(c3ccccc3)c3ccccc3)s2)cc1

- emission maximum (in CC#N): 456 nm
Structure (SMILES): COc1ccc(C#Cc2cc3ccccc3oc2=O)cc1

- emission maximum (in ClC(Cl)Cl): 550 nm
Structure (SMILES): C(#Cc1cccs1)C(C#Cc1cccs1)=Cc1ccc(C=C(C#Cc2cccs2)C#Cc2cccs2)s1

- emission maximum (in C1COCCO1): 478 nm
- emission maximum (in CC#N): 477 nm
- emission maximum (in CCCCOCCCC): 476 nm
- emission maximum (in CCOC(C)=O): 475 nm
Structure (SMILES): Clc1nc(Nc2ccccc2)nc(Nc2ccc3c4cccc5cccc(c6cccc2c63)c54)n1

- emission maximum (in CC#N): 606 nm
Structure (SMILES): CC1=[N+]2C(=C(c3ccccc3)c3c4ccccc4c(C)n3[B-]2(F)F)c2ccccc21

- emission maximum (in CCO): 373 nm
- emission maximum (in ClCCl): 396 nm
- emission maximum (in O): 463 nm
Structure (SMILES): Oc1ccccc1-c1nc2ccccc2s1

- emission maximum (in C1CCOC1): 456 nm
Structure (SMILES): N#Cc1ccc(/C=C/c2ccc(C=C(c3ccccc3)c3ccccc3)cc2)cc1

- emission maximum (in CC#N): 589 nm
Structure (SMILES): CC1=C(/C=C/c2ccccc2)C2=Cc3c(/C=C/c4ccccc4)c(C)c(C)n3[B-](F)(F)[N+]2=C1C

- emission maximum (in ClCCl): 666 nm
Structure (SMILES): COc1ccc(C#Cc2c3cc4ccccc4cc3c(C#C[Si](C(C)C)(C(C)C)C(C)C)c3cc4ccccc4cc23)cc1

- emission maximum (in ClC(Cl)Cl): 560 nm
Structure (SMILES): Cc1ccc(S(=O)(=O)/N=c2\oc3cccc4c5c(-c6ccccc6)oc6cccc(c(c2-c2ccccc2)c34)c65)cc1

- emission maximum (in C1CCOC1): 417 nm
- emission maximum (in C1COCCO1): 417 nm
- emission maximum (in CC#N): 417 nm
- emission maximum (in CC(C)O): 423 nm
- emission maximum (in CCO): 427 nm
- emission maximum (in CCOC(C)=O): 416 nm
- emission maximum (in CN(C)C=O): 421 nm
- emission maximum (in CO): 430 nm
- emission maximum (in CS(C)=O): 424 nm
- emission maximum (in O): 448 nm
Structure (SMILES): NS(=O)(=O)c1ccc(N2N=C(c3ccc(O)cc3)CC2c2ccc(F)cc2)cc1 (configuration not stated)

- emission maximum (in ClCCl): 503 nm
Structure (SMILES): O=C(O)C1=C(C(=O)O)C2=C[C@H]3c4ccccc4[C@]2(S1)c1ccccc13

- emission maximum (in C1CCOC1): 443 nm
Structure (SMILES): COc1cc2oc(=O)c3c4ccc(C(=O)c5ccccc5)cc4c4ccc5cccc6c(c1)c2c3c4c56

- emission maximum (in ClCCl): 406 nm
Structure (SMILES): CCOc1cccc(-c2nc3c(c4c2-c2ccccc2CC4)-c2ccccc2CC3)c1O

- emission maximum (in ClC(Cl)Cl): 371 nm
Structure (SMILES): CC(C)(C)c1ccc2oc3nc4oc5ccc(N6c7ccccc7Sc7ccccc76)cc5c4cc3c2c1

- emission maximum (in C1CCOC1): 431 nm
Structure (SMILES): O=P1(c2ccccc2)C(c2ccc(C3=Cc4ccccc4P3(=O)c3ccccc3)cc2)=Cc2ccccc21 (configuration not stated)

- emission maximum (in C1COCCO1): 528 nm
- emission maximum (in CC#N): 614 nm
- emission maximum (in ClCCl): 571 nm
Structure (SMILES): Cc1ccc2nc(/C=C/c3ccc(N(C)C)cc3)c(-c3ccccc3)nc2c1
